This passage reports solubility in water results from patent US11719488B2, “Lyophilization process and a teverelix-TFA lyophilizate obtained thereby” (Antev Limited, priority 2018, dated 2023).

The nature of the series: Solubility of teverelix-TFA. The format is physicochemical.

Counter-ions that a name gives are not always drawn. Non-standard residues stand in square brackets, D forms with d. Residues, ends and D or L forms follow the SMILES beside them. dPhe(4-Cl) = N[C@H](Cc1ccc(Cl)cc1)C(=O)O; d2Nal = N[C@H](Cc1ccc2ccccc2c1)C(=O)O; d(hCit) = NC(=O)NCCCC[C@@H](N)C(=O)O; Lys(iPr) = CC(C)NCCCC[C@H](N)C(=O)O; d3Pal = N[C@H](Cc1cccnc1)C(=O)O

Take `CC(=O)N[C@H](Cc1ccc2ccccc2c1)C(=O)N[C@H](Cc1ccc(Cl)cc1)C(=O)N[C@H](Cc1cccnc1)C(=O)N[C@@H](CO)C(=O)N[C@@H](Cc1ccc(O)cc1)C(=O)N[C@H](CCCCNC(N)=O)C(=O)N[C@@H](CC(C)C)C(=O)N[C@@H](CCCCNC(C)C)C(=O)N1CCC[C@H]1C(=O)N[C@H](C)C(N)=O` [Teverelix-TFA, Ac-D-Nal-D-pClPhe-D-Pal-Ser-Tyr-D-Hci-Leu-Lys(iPr)-Pro-D-Ala-NH2] (Ac-[d2Nal][dPhe(4-Cl)][d3Pal]SY[d(hCit)]L[Lys(iPr)]P[dA]-NH2): the solubility in water entry was “very low solubility in water”.
